Assay [1] relates to Aspergillus flavus. The format is cell-based. The method, then:
Description of the method for the antifungal assays. […] Each well contained 100 μl Potato Dextrose Agar (PDA, Difco Laboratories) and 100 μl of sample and was inoculated with 500 spores of Aspergillus flavus. Fungal growth was monitored by reading optical density (O.D.) at 560 nm (Dynatech microplate reader). […] After complete purification of the antifungal peptides as described in example 8, removing salt by purification on a […] cartridge (waters) and freeze drying, both peptides were quantified by weight. […] The antifungal assays are described in example 2.

Assay [2] relates to Aspergillus flavus. As to the kind of experiment: Disc plate diffusion assay. The format is cell-based. The note with it: purified peptide on filter paper disc. The method, then:
Mycelium plugs from actively growing fungal cultures were placed in the center of the petri plate. After incubation at 27° C. to allow vegetative growth, samples were applied on sterile filter paper discs laid on the agar surface. Precipitation with ammonium sulfate. The 7th day culture filtrate was sequentially precipitated with 20, 40, 60 and 80% ammonium sulfate. […] After complete purification of the antifungal peptides as described in example 8, removing salt by purification on a […] cartridge (waters) and freeze drying, both peptides were quantified by weight. […] The antifungal assays are described in example 2.

The test system of assay [3] is Kluyveromyces bulgaris. The note with it: cited from earlier work.
Assay [4] relates to Aspergillus niger. The note with it: cited from earlier work.
Another assay relates to Absydia corymbifera. The note with it: cited from earlier work.
Assay [5] has as its system Candida albicans. The note with it: cited from earlier work.
The test system of the next assay is Saccharomyces cerevisae. The conditions noted are these: cited from earlier work.
In assay [6] the test system is Fusarium oxysporum. The conditions noted are these: cited from earlier work.
In another assay the test system is bacteria. The note with it: cited from earlier work.
Assay [7] deals with various yeasts, fungi and phytopathogenic fungi. The note with it: cited from earlier work.
The subject of another assay is Brucella brochiseptica. The note with it: cited from earlier work.
Another assay deals with Neurospora crassa. The note with it: cited from earlier work.
For the next assay, the system named is Saccharomyces cerevisiae. The note with it: cited from earlier work.
The test system of assay [8] is Fusarium oxysporum. The note with it: cited from earlier work. This is another data set of the same source.
Another assay concerns Streptomyces albus G. The note with it: cited from earlier work.
Another assay deals with Candida tropicalis. The conditions noted are these: cited from earlier work.
Another assay concerns Staphylococcus aureus. The note with it: cited from earlier work.
A further assay relates to Botrytis cinerea. The conditions noted are these: cited from earlier work.
For another assay, the system named is Pleospora herbarum. The note with it: cited from earlier work.
In another assay the test system is Escherichia coli K12. The note with it: cited from earlier work.
The test system of a further assay is Sclerotina fructigena. The conditions noted are these: cited from earlier work.
Assay [9] has as its system Aspergillus niger. The conditions noted are these: cited from earlier work. This is another data set of the same source.
A further assay concerns Penicillium chysogenum. The note with it: cited from earlier work.
A further assay has as its system Sclerotina sclerotiorum. The note with it: cited from earlier work.
Another assay concerns Stemphylium radicinum. The conditions noted are these: cited from earlier work.
The test system of another assay is Rhodotorula pillimanae. The conditions noted are these: cited from earlier work.
Assay [10] concerns Candida albicans. The note with it: cited from earlier work. The source holds these as a separate data set.
The test system of assay [11] is Micrococcus luteus. The note with it: cited from earlier work.
A further assay has as its system Sarcinia lutea. The note with it: cited from earlier work.
For the next assay, the system named is Mycosphaerella pinodes. The note with it: cited from earlier work.
The test system of the next assay is Bacillus cereus. The conditions noted are these: cited from earlier work.
The test system of assay [12] is Trichophyton mentagrophytes. The note with it: cited from earlier work.
For another assay, the system named is Azotobacter vinelandii. The conditions noted are these: cited from earlier work.
Assay [13] deals with Kluyveromyces bulgaris. The note with it: cited from earlier work. This is another data set of the same source.
Assay [14] deals with Cladosporium cladosporioides. The conditions noted are these: cited from earlier work.
The subject of assay [15] is Micrococcus luteus protoplast. The conditions noted are these: cited from earlier work.
Assay [16] relates to Micrococcus luteus. The note with it: cited from earlier work. The source holds these as a separate data set.
In the next assay the test system is Ophiostoma ulmi. The conditions noted are these: cited from earlier work.
Another assay deals with Ceratocystis fagacearum. The conditions noted are these: cited from earlier work.
A further assay concerns Cryphonectria parasitica. The conditions noted are these: cited from earlier work.
A further assay relates to Verticillium dahliae. The conditions noted are these: cited from earlier work.

Where two headings read alike, the source gives them in different places. Residues, ends and D or L forms follow the SMILES beside them. No end group written: not given here.

Results on eleven compounds are retold here after patent US6183736A, “Small peptides with antipathogenic activity, treated plants and methods for treating same” (USDA/ARS Southern Regional Research Center, priority 1999, dated 2001).

Take `CCCCCCCCCCCCC[C@@H]1CC(=O)N[C@@H](CC(N)=O)C(=O)N[C@H](Cc2ccc(O)cc2)C(=O)N[C@H](CC(N)=O)C(=O)N2CCC[C@H]2C(=O)N[C@@H](CCC(=O)O)C(=O)N[C@H](CO)C(=O)N[C@@H]([C@@H](C)O)C(=O)N1` [a2] (HELM PEPTIDE1{E.[dS].T.[CCCCCCCCCCCCC[C@H](CC(=O)[*:2])N[*:1]].N.[dY].[dN].P}$PEPTIDE1,PEPTIDE1,1:R1-8:R2$$$V2.0): in the assay on Aspergillus flavus [1], the “Microtiter plate Minimal inhibitory concentration (MIC)” value turned out to be 130 µM. Moreover, in the assay with Aspergillus flavus [2], the “Disc plate diffusion assay Minimal amount to inhibit hyphal growth” value was found to be 3 µg.
On to “Bacillomycin D (NYNPEST; also: cyclic lipopeptide with β-amino fatty acid, ring closure not described) [iturin lipopeptide: Asn Tyr Asn Pro Glu Ser Thr with β amino acid n-C14, i-C15, a-C15]”, for which the Antifungal activity entry with Kluyveromyces bulgaris [3], with Aspergillus niger [4], with Absydia corymbifera, with Candida albicans [5], in the assay with Saccharomyces cerevisae and in the assay with Fusarium oxysporum [6] was “antifungal” each time.
For the compound “Bacillomycin F (NYNQPNT; also: cyclic lipopeptide with β-amino fatty acid, ring closure not described) [iturin lipopeptide: Asn Tyr Asn Gln Pro Asn Thr with β amino acid i-C16, i-C17, a-C17]”, in the assay with bacteria, the Antibacterial activity entry is “weak antibacterial activity”. Further, the Antifungal activity result in [7] is recorded as “strong antifungal activity”.
Bacillomycin Fa: the minimal inhibitory concentration (MIC) was over 400 µg/mL with Brucella brochiseptica; 80 µg/mL in the assay with Neurospora crassa; 10 µg/mL with Saccharomyces cerevisiae; over 320 µg/mL with Fusarium oxysporum [8]; over 400 µg/mL in the assay with Streptomyces albus G; 40 µg/mL in the assay on Candida tropicalis. For the same compound, the minimum inhibitory concentration (MIC) in the assay on Staphylococcus aureus was over 400 µg/mL; with Botrytis cinerea, 20 µg/mL; with Pleospora herbarum, 10 µg/mL; in the assay with Escherichia coli K12 it was over 400 µg/mL; in the assay on Sclerotina fructigena it was 40 µg/mL; with Aspergillus niger [9] it was 40 µg/mL. Besides, the minimum inhibitory concentration (MIC) with Penicillium chysogenum is 20 µg/mL; in the assay on Sclerotina sclerotiorum it was 50 µg/mL; in the assay with Stemphylium radicinum, 320 µg/mL; in the assay with Rhodotorula pillimanae, 80 µg/mL; with Candida albicans [10], 40 µg/mL; in the assay on Micrococcus luteus [11] it was 200 µg/mL. For the same compound, the MIC in the assay on Sarcinia lutea is over 400 µg/mL; in the assay on Mycosphaerella pinodes, 10 µg/mL; with Bacillus cereus, over 400 µg/mL; in assay [12], 20 µg/mL; with Azotobacter vinelandii it was over 400 µg/mL.
As to Bacillomycin Fb, the MIC is 25 µg/mL with Saccharomyces cerevisiae; over 200 µg/mL in the assay on Fusarium oxysporum [8]; 75 µg/mL in the assay on Kluyveromyces bulgaris [13]; over 200 µg/mL in the assay on Candida tropicalis; 25 µg/mL with Aspergillus niger [9]; 25 µg/mL in assay [14]. Also, the MIC in the assay with Candida albicans [10] was over 200 µg/mL; in the assay with Mycosphaerella pinodes, 100 µg/mL.
Consider Bacillomycin Fc, for which the minimum inhibitory concentration (MIC) with Saccharomyces cerevisiae was 30 µg/mL; in the assay with Fusarium oxysporum [8], over 200 µg/mL; with Kluyveromyces bulgaris [13], 40 µg/mL; with Candida tropicalis, over 200 µg/mL; in the assay on Aspergillus niger [9] it was 30 µg/mL; in assay [14], 40 µg/mL. Besides, the minimal inhibitory concentration (MIC) with Candida albicans [10] was over 200 µg/mL; in the assay on Mycosphaerella pinodes, 30 µg/mL.
Consider “Bacillomycin L (DYNSQST; also: cyclic lipopeptide with β-amino fatty acid, ring closure not described) [iturin lipopeptide: Asp Tyr Asn Ser Gln Ser Thr with β amino acid n-C14, i-C15, a-C15]”, for which the “Lysis of Micrococcus luteus protoplast” value in assay [15] is reported as “no effect”. For the same compound, the “Inhibition of growth of Micrococcus luteus” value (from here on “Inhibition”) with Micrococcus luteus [16] was “inhibited the growth”.
On to Bacillomycin Lc, for which the Antifungal activity result in the assay on Ophiostoma ulmi, with Ceratocystis fagacearum, in the assay with Cryphonectria parasitica and in the assay with Verticillium dahliae was “antifungal activity” throughout.
As for “Iturin A (NYNQPNS; also: cyclic with β-amino fatty acid, ring closure not described) [cyclic lipopeptide of Bacillus subtilis: Asn Tyr Asn Gln Pro Asn Ser with β amino acid n-C14, i-C15, a-C15]”, the “Microtiter plate Minimal inhibitory concentration (MIC)” value in the assay on Aspergillus flavus [1] (Aspergillus flavus, 500 spores per well, O.D. 560 nm) was 250 µM. In addition, the “Disc plate diffusion assay Minimal amount to inhibit hyphal growth” value with Aspergillus flavus [2] was over 50 µg. Further, the “Lysis of Micrococcus luteus protoplast” value in [15] is listed as “able to lyse”. For the same compound, the “Inhibition” value in the assay on Micrococcus luteus [16] is “inhibited the growth”.
In the case of “Mycosubtilin (NYNQPSN; also: cyclic lipopeptide with β-amino fatty acid, ring closure not described) [Mycosubtlin, iturin lipopeptide: Asn Tyr Asn Gln Pro Ser Asn with β amino acid i-C16, a-C17]”, the “Lysis of Micrococcus luteus protoplast” value in assay [15] is listed as “able to lyse”. In the assay on Micrococcus luteus [16], the “Inhibition” value is “inhibited the growth”.
Regarding “a1: cyclic lipopeptide from B. subtilis AU195, bacillomycin D family, [M+H] 1045.5, linearised sequence STNYNPE, β-amino fatty acid believed of 15 carbons (not fully specified; also: cyclic lipopeptide, C15 β-amino fatty acid (hydroxy fatty acid at Thr suggested), sequence given after Glu-C linearisation)”, in the assay on Aspergillus flavus [2], the “Disc plate diffusion assay Minimal amount to inhibit hyphal growth” value is 15 µg.

For orientation: MIC means the lowest concentration that inhibits growth of the organism.
